# Patent US6787525B1, “Glyceryl nucleotides, method for the production thereof and their use” (priority 1998, dated 2004)
# Assays:
# HIV = experiment: In-vitro anti-HIV effect: inhibition of HIV-induced cell death of T4 lymphocytes (CEM-SS), XTT; type: cell-based; conditions: 6 days
# Protocol: (§1) T4 lymphocytes (cell line: CEM-SS), which are killed by HIV within two replication cycles, are used as the test system. That which is detected is the inhibition of cell death. The compound according to the invention is dissolved in DMSO and this solution is diluted with cell culture medium in the ratio 1:100. […] All the cell cultures are examined spectrophotometrically in order to quantify production of formazan. In addition to this, individual cultures are examined microscopically in order to confirm the anti-HIV activity. The virus-infected cells which have been treated with the compound according to the invention are compared with the standard on the same plate. The in-vitro anti-HIV activity data, which were determined within the context of a National Cancer Institute Developmental Therapeutics Program, are summarized in the following table.
# [1] = tested on: T4 lymphocytes (cell line: CEM-SS); experiment: Toxicity control: uninfected T4 lymphocytes (CEM-SS) with compound only, XTT; type: cell-based; conditions: 6 days
# Protocol: as §1
smiles,measurement,setting,value
"CCCCCCCCCCCCCCCC(=O)Nc1ccn(C2CCC(COP(=O)(O)OCC(COP(=O)(O)OCC3OC(n4cc(C)c(=O)[nH]c4=O)CC3N=[N+]=[N-])OC(=O)CCCCCCCCCCCCCCC)O2)c(=O)n1 (racemic) [NSC 704532-F/1, N^4-palmitoyl-2′,3′-dideoxycytidylyl-(5′→1)-2-O-palmitoyl-rac-glycerylyl-(3→5′)-3′-azido-2′,3′-dideoxythymidine]",Percent of control infected,HIV; Dose 1.00 * 10^−6 molar,113.49%
same,Percent protection,"HIV; Dose 1.00 * 10^−6 molar, HIV-infected CEM-SS",114.05%
same,Percent of control infected,HIV; Dose 1.00 * 10^−7 molar,106.07%
same,Percent protection,"HIV; Dose 1.00 * 10^−7 molar, HIV-infected CEM-SS",106.32%
same,Percent of control infected,HIV; Dose 1.00 * 10^−8 molar,23.62%
same,Percent protection,"HIV; Dose 1.00 * 10^−8 molar, HIV-infected CEM-SS",20.44%
same,Percent of control infected,HIV; Dose 1.00 * 10^−9 molar,4.21%
same,Percent protection,"HIV; Dose 1.00 * 10^−9 molar, HIV-infected CEM-SS",0.22%
same,Percent of control infected,HIV; Dose 3.16 * 10^−7 molar,104.16%
same,Percent protection,"HIV; Dose 3.16 * 10^−7 molar, HIV-infected CEM-SS",104.33%
same,Percent of control infected,HIV; Dose 3.16 * 10^−8 molar,80.22%
same,Percent protection,"HIV; Dose 3.16 * 10^−8 molar, HIV-infected CEM-SS",79.40%
same,Percent of control infected,HIV; Dose 3.17 * 10^−9 molar,14.25%
same,Percent protection,"HIV; Dose 3.17 * 10^−9 molar, HIV-infected CEM-SS",10.68%
same,Percent of control infected,HIV; Dose 3.17 * 10^−10 molar,5.80%
same,Percent protection,"HIV; Dose 3.17 * 10^−10 molar, HIV-infected CEM-SS",1.88%
same,EC50,"HIV; HIV-infected CEM-SS, read-out: 50% protection from infection (EC5.)",17.9 nM
same,IC50,[1]; read-out: 50% cell growth (IC50),> 1000 nM
same,Percent of control uninfected,[1]; Dose 1.00 * 10^−6 molar,119.96%
same,Percent of control uninfected,[1]; Dose 1.00 * 10^−7 molar,112.26%
same,Percent of control uninfected,[1]; Dose 1.00 * 10^−8 molar,99.64%
same,Percent of control uninfected,[1]; Dose 1.00 * 10^−9 molar,105.03%
same,Percent of control uninfected,[1]; Dose 3.16 * 10^−7 molar,112.02%
same,Percent of control uninfected,[1]; Dose 3.16 * 10^−8 molar,104.96%
same,Percent of control uninfected,[1]; Dose 3.17 * 10^−9 molar,101.22%
same,Percent of control uninfected,[1]; Dose 3.17 * 10^−10 molar,105.43%
